The results in this text go back to US20260174766A1, “COMBINATION OF MENIN INHIBITOR(S) AND IMMUNOPROTEASOME INHIBITOR(S) FOR TREATMENT OF LEUKEMIA” (Medizinische Hochschule Hannover, priority 2022, published 2026).

Molecules are shown by their SMILES.

Assay [1] concerns MLL-AF9 driven leukemia. As to the kind of experiment: Secondary transplantation of bone marrow from in vivo treated MLL-AF9 mice. Further details: species or system mouse. As to conditions: p<0.0001. The protocol: For induction of MLL-AF9 (MA9) driven leukemia we used established retroviral MSCV-GFP-based vectors to express MA9 in hematopoietic stem- and progenitor cells (Lineage-negative, Sca1-positive, Kit-positive [LSK] cells). In detail, bone marrow (BM) of LMP7+/+ or LMP7−/− littermates was isolated following standard procedures from 6-12-weeks-old mice. Lineage-depletion was performed using Streptavidin Particles Plus-DM (BD Biosciences, Heidelberg, Germany) and a DynaMag magnet (Thermo Fisher Scientific). Lineage-depleted cells were stained with streptavidin BV421, KIT AF647 and Sca-1 FITC or PE antibodies (all antibodies were received from Biolegend, San Diego, CA, USA) and then used for cell sorting. […] Cells were analyzed 48 hours after first infection for GFP-expression using flow cytometry and 7.5×10^4 GFP+ cells were injected into sublethally irradiated (7 Gy, single dose) primary recipient mice (C57BL/6J; females). […]
To characterize the effects of LMP7/PSMB8 inhibition in more detail, differentiation following PR-957 treatment was assessed. […] Next, the frequency of L-GMP (Lin− c-kit+ Sca1− CD34+ FcgR+) was assessed by flow cytometry, which have been described as the functionally relevant LSC population in MLL-AF9 driven leukemia. […]

In assay [2] the test system is MLLr cell lines. As to the kind of experiment: Cell growth (cell counting after trypan blue exclusion) of MLLr cell lines. In kind it is cell-based, human. The conditions noted are these: 50 nM or 100 nM PR-957, 96 hours, vs DMSO; FIG. 1G left. On the procedure:
MOLM-13, MONO-MAC-6, THP-1, KOPN-8, ML-2, MV-4;11, OCI-AML3, U-937, KASUMI-1, K-562, HL-60 and LAMA-84 cells were purchased from DSMZ (Braunschweig, Germany). Cas9-Blast cell lines are subclones of the respective cell lines and stably transduced with lentiCas9-Blast (Addgene plasmid #52962). Cells were cultured in RPMI 1640 medium (Thermo Fisher Scientific, Waltham, MA, USA) supplemented with 10-20% FBS (Thermo Fisher Scientific) in a humid atmosphere of 5% CO2 at 37° C. MV4;11 cells harboring Menin-inhibitor resistance mediating mutations of Menin were generated by CRISPR-Cas9 technology.
Cellular proliferation was assessed by cell counting after trypan blue exclusion. Apoptosis of cells was measured by flow cytometry using Annexin V/SYTOX® Blue staining following the manufacturer's instruction.

The subject of assay [3] is human MLL-rearranged AML cell lines. The assay can be described thus: Cell cycle analysis (EdU, % cells in S phase). In kind it is cell-based. The conditions noted are these: 100 nM PR-957, 24 hours; MOLM-13, MV-4;11, ML-2, KOPN-8; FIG. 1I. On the procedure: Immunophenotyping of immature and mature cell compartments and of leukemic cells was performed as described before (Heidel et al., 2013; Heidel et al., 2012). The antibodies used for cell surface staining are provided in Table 1 at the end of section 2 (“Key Resource Table”). Cells were stained in PBS/1% FBS for 1.5 hours at 4° C. SYTOX® Blue Dead Cell Stain (Life Technologies, Darmstadt, Germany) was used to exclude dead cells. Flow cytometry was performed on a LSR-Fortessa or FACS Canto II cytometer (Becton Dickinson, Heidelberg, Germany). Cell cycle analysis was performed using the Click-iT™ Plus EdU Alexa Fluor™ 647 Assay Kit (Thermo Scientific, Waltham, MA, USA) as per the manufacturer's instructions.
Samples were labeled for FACs based analysis of cell cycle using the Click-iTR EdU assay. n=3 independent experiments; paired t test.

Turning to `COc1ccc(C[C@H](NC(=O)[C@H](C)NC(=O)CN2CCOCC2)C(=O)N[C@@H](Cc2ccccc2)C(=O)[C@]2(C)CO2)cc1` [PR-957, (2S)-3-(4-methoxyphenyl)-N-[(2S)-1-[(2S)-2-methyloxiran-2-yl]-1-oxo-3-phenylpropan-2-yl]-2-[[(2S)-2-[(2-morpholin-4-ylacetyl)amino]propanoyl]amino]propanamide], the “median survival of secondary recipients” value in assay [1] (recipients of PR-957 treated cells, control 21 days, FIG. 2G) is reported as 39.5 days. Moreover, the “leukemic cells in the peripheral blood (GFP+ WBC) of secondary recipients” value in assay [1] (two weeks after transplantation of bone marrow of treated mice, FIG. 2F) is given as 1.6 Gpt/L. Further, the “cell growth in MLLr cell lines” value in assay [2] was “dose-dependent and specific reduction of cell growth”. For the same molecule, the “cell cycle activity (% of cells in S phase)” value in assay [3] is given as “reduced cell cycle activity”.
